# Measurements reported in patent US20070270455A1, “INHIBITION OF NF-kB” (priority 2005, published 2007).
# Residues, ends and D or L forms follow the SMILES beside them. *: point of attachment. Cbz = O=C(OCc1ccccc1)*
# Key:
# HT1080siGFP cells = assay: Xenograft tumor growth, p53-expressing tumors; assay type: in vivo, nude mice; settings: 50 mg/kg i.p. daily; 5FU 35 mg/kg for comparison
# Experimental: (§1) HT1080ConALuC cells were inoculated into two flanks of nude mice. When tumors reach 5 mm in diameter, mice were injected intraperitoneally with indicated concentrations of the drugs (mg/kg, 3 mice per group). After 24 hours mice were sacrificed, tumors were isolated, lysed in Reporter Lysis Reagent (Promega) and luciferase activity was measured in […] of tumor proteins. Bars represent fold of induction of luciferase activity in tumors, treated with drugs over luciferase activity in tumors treated with vehicle. FIG. 5B: HT1080sip53 or HT1080siGFP cells were inoculated in the left and right flank of nude mice respectively.
# (§2) NIH Swiss athymic nude, male mice, 5-6 weeks old were purchased from Harlan. 5×10^6 of tumor cells were inoculated into the flank of mice in 100 μL of PBS. […] As vehicle, 50% DMSO solution in PBS was used. Tumor size was measured in three dimensions every other day.
# RCC45ConALacZ cells = assay: p53-responsive reporter (ConALacZ) β-galactosidase assay in RCC45 cells; assay type: cell-based; settings: compared with doxorubicin
# Experimental: 2×10^4 of RCC45ConALacZ cells were plated into wells of 96 well plates in 200 μL of phenol-red free RPMI medium with standard additives. After overnight incubation library of chemical compounds in DMSO solution together with controls was added with the help of plastic bacterial replicators (200+/−100 nL). Final concentration of compounds was around 5 μg/ml. Negative control was DMSO, positive control was doxorubicin solution (0.2, 0.6 and 2 μM). After 24 hours lysis buffer with ONPG was added directly to the medium on ice. After 3 hours of incubation at 37° C., β-galactosidase activity was estimated by reading absorbance values Wallack 1420 plate reader (Perkin Elmer) at λ=430 nm.
# For cotransfection set-up, 2×10^5 cells were plated into 6 well plates and, after overnight incubation, transfected with Lipofectamin Plus reagent (Gibco BRL) with 0.5 μg of reporter plasmids (p21-ConALuc or pNF-κBLuc) in combination with different concentrations of p53, Arf, Ss-IκB, or siHDM2 expressing plasmids. […] Luciferase activity and β-galactosidase activity was measured in lysates prepared 48 hours after transfection with Cell Lysis Buffer (Promega) by luciferase assay system (Promega) or β-galactosidase enzyme system (Promega). Luminometric and colorimetric reactions were read on the Wallack 1420 plate reader (Perkin Elmer). […]
# HT1080sip53 cells = assay: Xenograft tumor growth, p53-deficient tumors; assay type: in vivo, nude mice; settings: 50 mg/kg i.p. daily
# Experimental: as §1, §2
# ACHN cells = assay: ACHN tumor xenograft growth; assay type: in vivo, nude mice
# Experimental: (§3) IC50% for each cell line and each drug was determined. Each point represents IC50% of particular cell line, which are grouped as follows: (i) black circles—RCC cell lines (ACHN, RCC9, RCC13, RCC29, RCC45, RCC54), (ii) red triangles—non-RCC cell lines (MCF7, HT1080, H1299, U20S, LNCaP, HCT116), (iii) green squares—normal kidney cells (NKE). […] 10^7 of ACHN cells were inoculated under the skin of nude mice. At the moment tumors achieved 5 mm in diameter QC administrations were started intraperitoneally, 50 mg/kg. 5FU (35 mg/kg) was used as a control. Tumor size was measured every other day and presented as a fold increase in tumor volume.
# as §2
# [1] = tested on: RCC specimens and fragments of normal kidney; assay: p53-responsive lacZ reporter in ex vivo organ cultures; assay type: cell-based; settings: 24 hours, X-gal
# Experimental: as §3
# Fresh RCC specimens and fragments of normal kidney from the same patients were placed in short-term organ cultures in the media containing lentiviral vector carrying p53-responsive lacZ reporter (FIG. 10B) for 24 hours.
# RCC cell lines = assay: Restoration of p53-mediated transactivation in RCC cell lines; assay type: cell-based; settings: data not shown
# [2] = tested on: RCC54 and RCC45, normal kidney epithelial cells; assay: Sensitization to TRAIL, methylene blue assay; assay type: cell-based; settings: RCC54, RCC45 vs normal kidney epithelial cells; combination with TRAIL
# [3] = tested on: PC3 p53-negative or DU145 cells comprising mutant p53; assay: Prostate cancer xenograft tumor growth; assay type: in vivo, mice; settings: 100 mg/kg by oral gavage; control sterile water
# Source text: Mice were also inoculated with 2×10^6 human prostate cancer cells using PC3 p53-negative or with DU145 cells comprising mutant p53. […] Tumor growth was reduced by ˜50% in quinacrine-treated mice.
# H1299-NF-kBLuc cells = assay: NF-κB-responsive luciferase reporter assay; assay type: cell-based; settings: basal and TNF-induced (10 ng/ml)
# HT1080ConALuC tumors = assay: p53-dependent luciferase reporter in xenograft tumors; assay type: in vivo; settings: intraperitoneal; 24 hours; nude mice
# Experimental: as §1, §2
# The in vivo anti-tumor effects of aminoacridines were tested in a xenograft tumor model using HT1080 cells differing in their p53 status and carrying p53 luciferase reporters grown subcutaneously in nude mice.
# [4] = tested on: HT1080-sip53 and HT1080-siGFP cells; assay: Cell survival assay in isogenic cell pairs with anti-p53 or control siRNA; assay type: cell-based, human; settings: p53 plus vs minus cells; FIG. 4d
# p53 = assay: Western blot of p53 phosphorylation status in RCC45 cells; assay type: cell-based; settings: 9AA 5 μM or dox 1 μM, 16 hours
# Experimental: (§4) Western blot analysis of total protein lysates was performed using antibodies against p53 (DO1) and against specific sites of phosphorylation in p53. […] HCT116 cells were treated for 30 minutes with 1 μM PS-341. PS-341 was washed off after 30 minutes and cells were re-incubated in drug free medium prior to analysis at 3 hours or 16 hours post-treatment. […] Proteasome activity was determined by measuring the absorbance of free AMC generated by cleavage of an AMC-fluorogenic peptide. The proteasome activity of untreated cells was set at 100%. […] Cell lysates were isolated at the indicated hours after treatment and used for western blotting. […]
# (§5) Cells were lysed in RIPA buffer (25 mM Tris HCl, pH7.2, 125 mM NaCl, 1% NP40, 1% sodium deoxycholate, 1 mM EDTA) containing 1 mM PMSF (Sigma), 10 μg/ml of aprotinin (Sigma) and 10 μg/ml of leupeptin (Sigma). Protein concentrations were determined with BioRad Dc protein assay kit. […] The following antibodies were used: anti-p53—monoclonal mouse DO1 (Santa-Cruz), anti-p21—monoclonal mouse F-5 (Santa-Cruz), anti-mdm2—monoclonal mouse SMP14 (Santa-Cruz). p53 phosphorylation status was analyzed using phospho-p53 sampler kit from Cell signaling according to manufacturer's recommendations, anti-p65—(C20, Santa Cruz), anti-phospho-p65—(ser536, Cell Signaling), anti-IκBa—(C21, Santa Cruz), anti-p50—(NLS, Santa Cruz). […]
# IκB = assay: Western blot of IκB level and phosphorylation; assay type: cell-based; settings: PC-3 cells, 10 μM; MCF7 cells
# Experimental: as §4, §5
structure (smiles),measurement,setting,value
"CCN(CC)CCCC(C)Nc1c2ccc(Cl)cc2nc2ccc(OC)cc12 (stereo not shown) [quinacrine, Quinacrine]",growth of p53-expressing tumors,HT1080siGFP cells,inhibited growth of p53-expressing tumors to the same extend as 5FU
same,p53 reactivation / reporter induction (in words),RCC45ConALacZ cells,intermediate level of activity
same,growth of p53-deficient tumors,HT1080sip53 cells,no effect
same,weight loss (in words),ACHN cells; 50 mg/kg intraperitoneally,without significant weight loss
same,inhibition of tumor growth,"ACHN cells; ACHN s.c. in nude mice, 50 mg/kg intraperitoneally",about 50%
same,expression of p53-responsive reporter in tumor samples,[1],induced expression of the p53-responsive reporter
same,RCC cell lines with restored p53-mediated transactivation,RCC cell lines,9 out of 10
same,TRAIL resistance,[2],inverted TRAIL resistance of tumor but not normal kidney cells
same,reduction of tumor growth,[3],~50%
same,NF-κB-responsive reporter activity,H1299-NF-kBLuc cells,inhibited basal and TNF-induced activity of the reporter
same,activation of p53 in tumors,HT1080ConALuC tumors,capable of activating p53 in tumors
COc1cccc2c1C(=O)c1c(O)c3c(c(O)c1C2=O)C[C@@](O)(C(=O)CO)C[C@@H]3O[C@H]1C[C@H](N)[C@H](O)[C@H](C)O1 [doxorubicin],toxicity found to be p53-dependent (none = not p53-dependent),[4],none
same,expression of p53-responsive reporter in tumor samples,[1],not
same,p53 phosphorylation status,p53,did induce phosphorylation of p53
CC[C@@]1(O)C(=O)OCc2c1cc1n(c2=O)Cc2cc3ccccc3nc2-1 [camptothecin],toxicity found to be p53-dependent (none = not p53-dependent),[4],none
CC(C)C[C@@H](C=O)NC(=O)[C@H](CC(C)C)NC(=O)[C@H](CC(C)C)NC(=O)OCc1ccccc1 [MG132] (Cbz-Leu-Leu-Leu-aldehyde),level of IκB,IκB,caused accumulation of phosphorylated forms of IkB
CC(=O)O[C@H]1C(=O)[C@@]2(C)[C@H]([C@H](OC(=O)c3ccccc3)[C@]3(O)C[C@H](OC(=O)[C@H](O)[C@@H](NC(=O)c4ccccc4)c4ccccc4)C(C)=C1C3(C)C)[C@]1(OC(C)=O)CO[C@@H]1C[C@@H]2O [paclitaxel],toxicity found to be p53-dependent (none = not p53-dependent),[4],none
CC[C@]1(O)C[C@@H]2CN(CCc3c([nH]c4ccccc34)[C@@](C(=O)OC)(c3cc4c(cc3OC)N(C)[C@H]3[C@@](O)(C(=O)OC)[C@H](OC(C)=O)[C@]5(CC)C=CCN6CC[C@]43[C@@H]65)C2)C1 [vinblastine],toxicity found to be p53-dependent (none = not p53-dependent),[4],none
"O=c1[nH]cc(F)c(=O)[nH]1 [5FU, 5-fluorouracil]",weight loss,ACHN cells; 5FU 35 mg/kg,up to 20%
